Measurements: PubChem BioAssay AID1918995 (Molecular Pharmacology Branch, DTP, NCI, 2023)
Where “and” joins values, the source holds several entries; their conditions need not be identical. Equal values may be shown once.

Tested on: 324938-238-R-J1-PDC complex spheroid growth, % test/control
Test: Anticancer human tumor 324938-238-R-J1-PDC patient-derived bladder carcinoma cell line growth inhibition [AhR]
Conditions: for viability, T/C: stronger effect = lower value
Source text: Multicellular complex tumor spheroid response to aryl hydrocarbon receptor antagonists in combination with a variety of drugs and investigational agents in selected tumor cell lines
The current study was undertaken to assess response to aryl hydrocarbon receptor antagonists in combination with standard-of-care drugs and investigational agents in solid tumor complex spheroid models. Complex spheroids include a stromal component modeled by human endothelial cells (HUVEC) and fibroblasts modeled by human mesenchymal stem cells (MSCs). The concentration ranges selected for each drug and investigational agent were based upon clinically achievable concentrations if the clinical Cmax of the agent was known.
Compounds. The drugs and investigational agents: BAY 2416964 (NSC825713), GNF351 (NSC835774), CH-223191 (NSC835775), CPI-455 (NSC825282), aza-TdCyd (NSC777586), decitabine (NSC127716), belinostat (NSC758774), entinostat (NSC756642), pevonedistat (NSC761192), tazemetostat (NSC777109), talazoparib (NSC765396), olaparib (NSC753686), selinexor (NSC780203), nedisertib (M3814, NSC802822), bortezomib (NSC756655), venetoclax (NSC766270), doxorubicin (NSC123127), elimusertib (BAY189344, NSC800525), ceralasertib (AZD6738, NSC777638), TAK-243 (NSC785004), alisertib (NSC759677), etoposide (NSC141540), topotecan (NSC609699), eribulin (NSC707389), gemcitabine (NSC613327), carboplatin (NSC241240), cisplatin (NSC119875), and SN-38 (NSC673596) were obtained from the National Cancer Institute (NCI) Developmental Therapeutics Program Chemical Repository (32). The FDA-approved anticancer drug set is available from the Developmental Therapeutics Program at https://dtp.cancer.gov/organization/dscb/obtaining/available plates.htm. […] The stock solutions were prepared in dimethyl sulfoxide (DMSO, Sigma-Aldrich, St. Louis, MO, cat. D2650), except for the platinum compounds which were prepared in saline (Quality Biological, Gaithersburg, MD, cat. 114-055-101), at 800-fold the tested concentration and stored at -70 degrees C prior to their use. All drugs and investigational agents were tested over a range starting from a high concentration at or near the clinical Cmax and decreasing in half-log increments. If the clinical Cmax for an agent had not been determined, the highest concentration tested was 10 microM (Table 1).
Cell Culture. All cells were maintained in an incubator at 37 degrees C and 5% CO2 with 95% humidity. The PDC lines were cultured according to standard operating procedures established by the NCI PDMR (https://pdmr.cancer.gov). Briefly, all PDCs were thawed and cultured in Matrigel-coated flasks prepared with a working solution of 1X Ham's F-12 nutrient mix, without supplementation (Invitrogen, Waltham, MA, cat. 11765054), 100 U/mL penicillin-streptomycin (Invitrogen, cat. 15140122), and 2.5% Matrigel (Corning Inc., Corning, NY, cat. 354248) for the first three passages. All PDCs were cultured in complete DMEM/F-12 media containing advanced DMEM/F-12 (Invitrogen, cat. 12634028), 4.9% defined fetal bovine serum, heat inactivated (HyClone Laboratories Inc., Logan, UT, cat. SH30070.03HI), 389 ng/mL hydrocortisone (Sigma-Aldrich, cat. H4001), 9.7 ng/mL human EGF recombinant protein (Invitrogen, cat. PHG0313), 23.4 microg/mL adenine (Sigma-Aldrich, cat. A2786), 97.3 U/mL penicillin-streptomycin (Invitrogen, cat. 15140122), 1.9 mM L-glutamine (Invitrogen, cat. 25030081), and 9.7 microM Y-27632 dihydrochloride (Tocris Bioscience, Bristol, United Kingdom, cat. 1254). The PDCs were cultured in complete DMEM/F12 media without 10 microM Y-27632 dihydrochloride for at least two passages prior to the screen. The established cell lines NCI-H1341 and […] were cultured in DMEM/F-12, HEPES (Invitrogen, cat. 11330032), 5% defined fetal bovine serum (HyClone Laboratories Inc., cat. SH30070.03), ITS premix universal culture supplement [insulin (5 microg/mL), transferrin (5 microg/mL), and selenious acid (5 ng/mL)] […]
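Note: spheroids exposed to agents for seven days before viability read.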

SMILES	IC50 (curve of compound)	viability, T/C (compound 0.0316 µM)	viability, T/C (compound 0.1 µM)	viability, T/C (compound 0.316 µM)	viability, T/C (compound 1 µM)	viability, T/C (compound 3.16 µM)	viability, T/C (compound 10 µM)	other results
CC(C)CC(NC(=O)C(Cc1ccccc1)NC(=O)c1cnccn1)B(O)O (stereo not given)	0.00484 µM and 0.00531 µM and 0.0018 µM	–	–	–	–	–	–	viability, T/C (compound 0.000949 µM): 87.9% and 116% and 93.5%; viability, T/C (compound 0.003 µM): 85.2% and 98.1% and 15.2%; viability, T/C (compound 0.00949 µM): 0.63% and 1.24% and 0.3%; viability, T/C (compound 0.03 µM): 0.28% and 0.36% and 0.27%; viability, T/C (compound 0.0949 µM): 0.78% and 0.3% and 0.27%; viability, T/C (compound 0.3 µM): 0.76% and 0.41% and 0.31%
CC(C)c1c(-c2ccccc2)nc2c(C#N)c[nH]n2c1=O	> 10 µM	136% and 101% and 102%	74.3% and 108% and 99%	70.3% and 96.4% and 99.4%	80.5% and 97.2% and 86.3%	181% and 93.4% and 97.5%	99.3% and 77.3% and 90.8%	–
CC(CO)NC(=O)c1cc(-c2ccc(Cl)cc2)nn(-c2cnn(C)c2)c1=O (stereo not given)	–	–	–	91% [middle of 21 runs]	82.4% [middle of 21 runs]	–	68.8% [middle of 19 runs]	IC50 (compound alone, run of 07/12/2022): > 10 µM
CC1(C)CCC(CN2CCN(c3ccc(C(=O)NS(=O)(=O)c4ccc(NCC5CCOCC5)c([N+](=O)[O-])c4)c(Oc4cnc5[nH]ccc5c4)c3)CC2)=C(c2ccc(Cl)cc2)C1	> 10 µM	87.5% and 102% and 105%	125% and 98.4% and 101%	93.4% and 103% and 109%	82.8% and 94.3% and 101%	104% and 90.7% and 87.7%	114% and 59.1% and 52.6%	–
CC1COCCN1c1cc(-c2ccnn2C)c2ccnc(-c3ccn[nH]3)c2n1 (stereo not given)	–	67.5% and 99.7% and 66.6%	55.1% and 76.3% and 45%	83.7% and 48.9% and 31.1%	68.1% and 27.7% and 19.9%	–	–	viability, T/C (compound 0.00316 µM): 98.3% and 108% and 107%; viability, T/C (compound 0.01 µM): 92.6% and 112% and 110%
CC1COCCN1c1cc(C2(S(C)(=N)=O)CC2)nc(-c2ccnc3[nH]ccc23)n1 (stereo not given)	> 10 µM and 5.91 µM and 2.94 µM	93% and 98% and 106%	114% and 112% and 116%	90% and 106% and 85.7%	93.9% and 90.2% and 86.4%	76.7% and 70.4% and 43.9%	77.1% and 33.6% and 25.4%	–
CCN(c1cc(-c2ccc(CN3CCOCC3)cc2)cc(C(=O)NCc2c(C)cc(C)[nH]c2=O)c1C)C1CCOCC1	> 3 µM	–	–	–	–	–	–	viability, T/C (compound 0.00949 µM): 93.5% and 100% and 111%; viability, T/C (compound 0.03 µM): 109% and 106% and 117%; viability, T/C (compound 0.0949 µM): 106% (2×) and 107%; viability, T/C (compound 0.3 µM): 83% and 100% and 116%; viability, T/C (compound 0.949 µM): 85% and 104% and 113%; viability, T/C (compound 3 µM): 124% and 97.5% and 105%
CC[C@@]1(O)C(=O)OCc2c1cc1n(c2=O)Cc2cc3c(CN(C)C)c(O)ccc3nc2-1	> 0.1 µM and 0.0213 µM and 0.0201 µM	125% and 37.5% and 35.2%	106% and 17.9% and 16.8%	–	–	–	–	viability, T/C (compound 0.000316 µM): 96% and 93.1% and 103%; viability, T/C (compound 0.001 µM): 96.2% and 106% and 108%; viability, T/C (compound 0.00316 µM): 66.5% and 84.8% and 87.8%; viability, T/C (compound 0.01 µM): 82.1% and 74.2% and 73.3%
CCc1c2c(nc3ccc(O)cc13)-c1cc3c(c(=O)n1C2)COC(=O)[C@]3(O)CC	–	–	–	–	–	–	–	viability, T/C (compound 0.000949 µM): 80.8% and 57.3% and 38.8%; viability, T/C (compound 0.003 µM): 71% and 52.4% and 28.9%; viability, T/C (compound 0.00949 µM): 70.2% and 18.2% and 19%; viability, T/C (compound 0.03 µM): 90.4% and 15.3% and 17.9%; viability, T/C (compound 0.0949 µM): 78.3% and 16.9% and 17%; viability, T/C (compound 0.3 µM): 69.4% and 14.9% and 15.4%
COc1cc(C2c3cc4c(cc3C(OC3OC5COC(C)OC5C(O)C3O)C3COC(=O)C23)OCO4)cc(OC)c1O (stereo not given)	–	118% and 99.2% and 96.2%	101% and 103% and 86.9%	113% and 51.8% and 53%	97% and 31.6% and 32.9%	78.7% and 31.4% and 29.9%	95.9% and 19% and 20%	–
COc1cc(Nc2ncc3c(n2)-c2ccc(Cl)cc2C(c2c(F)cccc2OC)=NC3)ccc1C(=O)O	–	101% and 74% and 71.8%	111% and 56% and 46%	68.3% and 32.7% and 27.7%	92% and 36% and 28.2%	92.5% and 38.2% and 27.3%	75.8% and 39.1% and 32.8%	–
